Our source for the IC50 values is patent publication US20260200928A1, “THERAPEUTIC COMPOUNDS” (Sanofi, priority 2022, published 2026).

This experiment concerns the target T1, human IL-17A (Homo sapiens, UniProt Q16552).
T1 construct: purchased R&D Systems 7955-IL/CF
T1 sequence (Q16552 24-155): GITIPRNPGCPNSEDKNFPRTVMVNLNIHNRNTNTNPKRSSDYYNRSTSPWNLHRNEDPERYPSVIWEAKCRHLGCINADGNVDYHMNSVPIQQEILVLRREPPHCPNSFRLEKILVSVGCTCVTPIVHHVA
As to the kind of experiment: IL-17A AlphaLISA competition assay (block of IL-17A binding to its receptor IL-17RA). To be noted: mean IC50 (n≥2), block of IL-17A binding to IL-17RA. On the procedure: The ability of the compounds to block binding of IL-17A to its receptor, IL-17RA, was analysed in a competition assay using AlphaLISA technology (Perkin Elmer). The assay is a bead based AlphaLISA where the IL-17RA is captured on the acceptor bead via an Fc tag and IL-17A is captured on the streptavidin donor bead via a biotinylated anti-IL17A antibody.
Assay buffer was prepared by adding 0.05% Tween-20 (v/v) and 0.1% BSA to Phosphate Buffered Saline (PBS). The assay was carried out in 384-well white low volume plates (Perkin Elmer #6008359). 10 μL of a 7.5 nM stock of human recombinant IL-17A (R&D Systems 7955-IL/CF) diluted in assay buffer was dispensed into the assay plate and compounds or DMSO vehicle control were added in a volume of 75 nL using an acoustic dispenser (Beckman). The compounds were pre-incubated with the IL-17A for 30 min at room temperature prior to addition of 5 μL of a 5 nM stock of human recombinant IL-17RA/Fc chimera (R&D Systems 177-IR-100) diluted in assay buffer. The IL-17A was incubated with the receptor for a further 90 minutes at room temperature before addition of 5 μL of a mixture of anti-human Fc IgG acceptor beads (75 μg/mL, Perkin Elmer AL1030) and anti-IL-17A biotin conjugated antibody (5 nM, Abcam, #ab155575) in assay buffer. After a further 30 min incubation at room temperature, 5 μL of streptavidin donor beads (75 μg/mL, Perkin Elmer 6760002S) were added and the plate was incubated for 3 h in the dark.
The AlphaLisa signal was measured using the PheraSTAR plate reader (BMG). Data were analysed using GeneData Screener and fitted to a 4-parameter logistic equation. The IC50 values were calculated using the DMSO vehicle as the negative control and a high concentration (4 μM) of a reference IL-17A inhibitor as the positive control. All compounds were analysed at least in duplicate (n≥2).

`COCC(c1ccnc(NC(=O)C(NC(=O)C(F)(F)c2ccc(C)cc2)C2CCC(C)CC2)c1)N1CC(C(F)(F)F)NC1=O` (single isomer, unassigned) [Example 149] displayed an IC50 of 108 nM.

Regarding `COCC(c1ccnc(NC(=O)[C@@H](NC(=O)C(F)(F)c2ccccc2)[C@H]2CC[C@H](C)CC2)c1)N1C[C@@H](C(F)(F)F)NC1=O` (single isomer, unassigned) [Example 150], the IC50 came out at 61 nM.

With `O=C(N[C@H](C(=O)Nc1cc(C(C2CC2)N2C[C@@H](C(F)(F)F)NC2=O)ccn1)C1CCC(F)(F)CC1)c1nonc1C1CC1` (single isomer, unassigned) [Example 162, 4-Cyclopropyl-N—((S)-2-((4-((R or S)-cyclopropyl((S)-2-oxo-4-(trifluoromethyl)imidazolidin-1-yl)methyl)pyridin-2-yl)amino)-1-(4,4-difluorocyclohexyl)-2-oxoethyl)-1,2,5-oxadiazole-3-carboxamide], the IC50 came out at 444 nM.

In the case of `O=C(N[C@H](C(=O)Nc1cc(C(C2CC2)N2C[C@@H](C(F)(F)F)NC2=O)ccn1)C1CCC(F)(F)CC1)c1nonc1C1CC1` (single isomer, unassigned) [Example 163, 4-Cyclopropyl-N-((S)-2-((4-((R or S)-cyclopropyl((S)-2-oxo-4-(trifluoromethyl)imidazolidin-1-yl)methyl)pyridin-2-yl)amino)-1-(4,4-difluorocyclohexyl)-2-oxoethyl)-1,2,5-oxadiazole-3-carboxamide], the IC50 is 20 nM.

Regarding `Cc1nonc1C(=O)N[C@H](C(=O)Nc1cc(C(C2CC2)N2C[C@@H](C(F)(F)F)NC2=O)ccn1)C1CCC(F)(F)CC1` (single isomer, unassigned) [Example 164, N-((1S)-2-((4-((R or S)-cyclopropyl((S)-2-oxo-4-(trifluoromethyl)imidazolidin-1-yl)methyl)pyridin-2-yl)amino)-1-(4,4-difluorocyclohexyl)-2-oxoethyl)-4-methyl-1,2,5-oxadiazole-3-carboxamide], the IC50 is 35 nM.

Consider `CCn1nccc1C(=O)N[C@H](C(=O)Nc1cc(C(C2CC2)N2C[C@@H](C(F)(F)F)NC2=O)ccn1)C1CCC(F)(F)CC1` (single isomer, unassigned) [Example 165, N-((1S)-2-((4-((R or S)-cyclopropyl((S)-2-oxo-4-(trifluoromethyl)imidazolidin-1-yl)methyl)pyridin-2-yl)amino)-1-(4,4-difluorocyclohexyl)-2-oxoethyl)-1-ethyl-1H-pyrazole-5-carboxamide], for which the IC50 stood at 41 nM.

`Cn1nccc1C(=O)N[C@H](C(=O)Nc1cc(C(C2CC2)N2C[C@@H](C(F)(F)F)NC2=O)ccn1)C1CCC(F)(F)CC1` (single isomer, unassigned) [Example 166, N-((1S)-2-((4-((R or S)-cyclopropyl((S)-2-oxo-4-(trifluoromethyl)imidazolidin-1-yl)methyl)pyridin-2-yl)amino)-1-(4,4-difluorocyclohexyl)-2-oxoethyl)-1-methyl-1H-pyrazole-5-carboxamide] displayed an IC50 of 50 nM.

`Cc1nonc1C(=O)N[C@H](C(=O)Nc1cc(C(C)N2C[C@@H](C(F)(F)F)NC2=O)ccn1)C1CCC(F)(F)CC1` (single isomer, unassigned) [Example 169, N-((1S)-1-(4,4-Difluorocyclohexyl)-2-oxo-2-((4-(R or S)-(1-((S)-2-oxo-4-(trifluoromethyl)imidazolidin-1-yl)ethyl)pyridin-2-yl)amino)ethyl)-4-methyl-1,2,5-oxadiazole-3-carboxamide]: the IC50 is 79 nM.

With `CC(c1ccnc(NC(=O)[C@@H](NC(=O)c2nonc2C2CC2)C2CCC(F)(F)CC2)c1)N1C[C@@H](C(F)(F)F)NC1=O` (single isomer, unassigned) [Example 170, 4-cyclopropyl-N-((S)-1-(4,4-difluorocyclohexyl)-2-oxo-2-((4-((R or S)-1-((S)-2-oxo-4-(trifluoromethyl)imidazolidin-1-yl)ethyl)pyridin-2-yl)amino)ethyl)-1,2,5-oxadiazole-3-carboxamide], the IC50 stood at 21 nM.

Consider `CC(c1ccnc(NC(=O)[C@@H](NC(=O)c2ccnn2C)C2CCC(F)(F)CC2)c1)N1C[C@@H](C(F)(F)F)NC1=O` (single isomer, unassigned) [Example 171, N-((1S)-1-(4,4-difluorocyclohexyl)-2-oxo-2-((4-((R or S)-1-((S)-2-oxo-4-(trifluoromethyl)imidazolidin-1-yl)ethyl)pyridin-2-yl)amino)ethyl)-1-methyl-1H-pyrazole-5-carboxamide], for which the IC50 came out at 67 nM.

`COCC(c1ccnc(NC(=O)[C@@H](NC(=O)c2nonc2C2CC2)C2CCC(F)(F)CC2)c1)[C@@H]1C[C@@H](C(F)(F)F)NC1=O` (single isomer, unassigned) [Example 184, 4-Cyclopropyl-N—((S)-1-(4,4-difluorocyclohexyl)-2-((4-((R or S)-2-methoxy-1-((3S,5S)-2-oxo-5-(trifluoromethyl)pyrrolidin-3-yl)ethyl)pyridin-2-yl)amino)-2-oxoethyl)-1,2,5-oxadiazole-3-carboxamide]: the IC50 was determined as 637 nM. This IC50 is about 9.5-fold higher than that of the compound before.

`COCC(c1ccnc(NC(=O)[C@@H](NC(=O)c2nonc2C2CC2)C2CCC(F)(F)CC2)c1)[C@H]1C[C@@H](C(F)(F)F)NC1=O` (single isomer, unassigned) [Example 185, 4-Cyclopropyl-N-((1S)-1-(4,4-difluorocyclohexyl)-2-((4-((R or S)-2-methoxy-1-((3R,5S)-2-oxo-5-(trifluoromethyl)pyrrolidin-3-yl)ethyl)pyridin-2-yl)amino)-2-oxoethyl)-1,2,5-oxadiazole-3-carboxamide] yielded a half-maximal inhibitory concentration (IC50) of 46 nM.

As to `COCC(c1ccnc(NC(=O)[C@@H](NC(=O)c2nonc2C2CC2)C2CCC(F)(F)CC2)c1)[C@H]1C[C@@H](C(F)(F)F)NC1=O` (single isomer, unassigned) [Example 186, 4-Cyclopropyl-N-((1S)-1-(4,4-difluorocyclohexyl)-2-((4-((R or S)-2-methoxy-1-((3R,5S)-2-oxo-5-(trifluoromethyl)pyrrolidin-3-yl)ethyl)pyridin-2-yl)amino)-2-oxoethyl)-1,2,5-oxadiazole-3-carboxamide], the IC50 came to 69 nM.

With `C[C@H]1CC[C@H]([C@H](NC(=O)c2nonc2C2CC2)C(=O)Nc2cc(C(CO)N3C[C@@H](C(F)(F)F)NC3=O)ccn2)CC1` (single isomer, unassigned) [Example 233, 4-Cyclopropyl-N-((1S)-2-((4-((R or S)-2-hydroxy-1-((S)-2-oxo-4-(trifluoro-methyl)imidazolidin-1-yl)ethyl)pyridin-2-yl)amino)-1-((1r,4S)-4-methylcyclohexyl)-2-oxoethyl)-1,2,5-oxadiazole-3-carboxamide], the concentration for half-maximal inhibition (IC50) was determined as 9 nM.

`C[C@H]1CC[C@H]([C@H](NC(=O)c2nonc2C2CC2)C(=O)Nc2cc(C(CO)N3C[C@@H](C(F)(F)F)NC3=O)ccn2)CC1` (single isomer, unassigned) [Example 234, 4-Cyclopropyl-N-((1S)-2-((4-((R or S)-2-hydroxy-1-((S)-2-oxo-4-(trifluoromethyl)imidazolidin-1-yl)ethyl)pyridin-2-yl)amino)-1-((1r,4S)-4-methylcyclohexyl)-2-oxoethyl)-1,2,5-oxadiazole-3-carboxamide]: the IC50 came to 39 nM.

For the compound `COCC(c1ccnc(NC(=O)C(NC(=O)C(F)(F)c2ccnn2C)C2CCC(C)CC2)c1)N1CC(C(F)(F)F)NC1=O` (single isomer, unassigned) [Example 248], the IC50 came out at 54 nM.

On to `COCC(c1ccnc(NC(=O)C(NC(=O)C(F)(F)c2cccc(Cl)c2)C2CCC(C)CC2)c1)N1CC(C(F)(F)F)NC1=O` (single isomer, unassigned) [Example 249], for which the IC50 stood at 49 nM.

The compound `COCC(c1ccnc(NC(=O)C(NC(=O)C(F)(F)c2cc(F)cc(F)c2)C2CCC(C)CC2)c1)N1CC(C(F)(F)F)NC1=O` (single isomer, unassigned) [Example 250] showed an IC50 of 38 nM. This IC50 and that of the compound before are within 1.5-fold of each other.

Take `COCC(c1ccnc(NC(=O)C(NC(=O)C(F)(F)c2cnccn2)C2CCC(C)CC2)c1)N1CC(C(F)(F)F)NC1=O` (single isomer, unassigned) [Example 251]: the IC50 turned out to be 33 nM. This IC50 and that of the compound before are within 1.5-fold of each other.

Take `COCC(c1ccnc(NC(=O)C(NC(=O)C(F)(F)c2ccc(OC)nc2)C2CCC(C)CC2)c1)N1CC(C(F)(F)F)NC1=O` (single isomer, unassigned) [Example 252]: the IC50 was determined as 49 nM. The IC50 values of the last two compounds are within 1.5-fold of each other.

`COCC(c1ccnc(NC(=O)C(NC(=O)Cc2cc(C)on2)C2CCC(C)CC2)c1)N1CC(C(F)(F)F)NC1=O` (single isomer, unassigned) [Example 253] came in with an IC50 of 106 nM.
